Assay results published in patent publication US8937072B2, “Substituted cyanoaniline compounds, preparation and use thereof” (Sinochem Corporation, priority 2011, dated 2015).
Where two headings read alike, the source gives them in different places.

Key:
[1] = system: plasmopora viticola; conditions: at high dose; cited from earlier work
[2] = system: rice blast; test: microbe, parasite or virus in culture; assay type: cell-based; conditions: Pyricularia oryzae; for inhibition at 0.03 µg/mL: read-out: the inhibition rate against rice blast (%) 0.03 mg/L; for inhibition at 0.1 µg/mL: read-out: the inhibition rate against rice blast (%) 0.1 mg/L; for inhibition at 0.3 µg/mL: read-out: the inhibition rate against rice blast (%) 0.3 mg/L; for inhibition at 25 µg/mL: read-out: inhibition rate against rice blast
[3] = system: cucumber downy mildew; test: Protectant activity in vivo (whole plant) against cucumber downy mildew; conditions: Cucumis sativus, 168 h; for pest or weed control at 12.5 µg/mL: 12.5 mg/L; for pest or weed control at 400 µg/mL: dose 400 mg/L
Procedure, shortened: (§1)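 Whole plants sprayed with test solution, water plus 0.1% Tween-80 and no more than 5% solvent, then inoculated with the pathogen after 24 h. Plants held in humidity chamber or directly in greenhouse depending on fungus. Disease control scored by eye at about 7 days.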

[4] = system: wheat powdery mildew; test: Protectant activity in vivo (whole plant) against wheat powdery mildew; conditions: Triticum aestivum, 168 h; for pest or weed control at 400 µg/mL: dose 400 mg/L
Method: The method is as followed: The whole plant is used in this test. The compound is dissolved in a proper solvent to get mother solution. The proper solvent is selected from acetone, methanol, DMF and so on according to their dissolving capability to the sample. The volume rate of solvent and testing solution (v/v) is equal to or less than 5%. The mother solution is diluted with water containing 0.1% tween-80 to get the testing solution whose concentration is designed. The testing solution is sprayed to the host plant by a special plant sprayer. The plant is inoculated with fungus after 24 hours. According to the infecting characteristic of fungus, the plant is stored in a humidity chamber and then transferred into greenhouse after infection is finished. And the other plants are placed in greenhouse directly. The activity of compound is obtained by eyeballing after 7 days in common.

[5] = system: cucumber gray mold; test: Activity in vitro (96-well, High Through Put): inhibition rate against cucumber gray mold; assay type: cell-based; conditions: for inhibition at 0.3 µg/mL: 0.3 mg/L; for inhibition at 0.9 µg/mL: 0.9 mg/L; for inhibition at 0.9 µg/mL / inhibition at 2.8 µg/mL / inhibition at 8.3 µg/mL: read-out: the inhibition rate against cucumber gray mold (%); for inhibition at 2.8 µg/mL: 2.8 mg/L; for inhibition at 8.3 µg/mL: 8.3 mg/L; for inhibition at 25 µg/mL: in vitro, dose 25 mg/L
Procedure, shortened: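 Scored visually at 24 hours relative to control, the readout is pathogen germination or growth. Test solutions used acetone, methanol or DMF as solvent and were mixed with pathogen suspension in a sterile high-throughput format at constant temperature.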

[6] = system: corn rust; test: Protectant activity in vivo (whole plant) against corn rust; conditions: Zea mays, 168 h; for pest or weed control at 6.25 µg/mL: 6.25 mg/L; for pest or weed control at 25 µg/mL: 25 mg/L; for pest or weed control at 100 µg/mL: 100 mg/L
Procedure, shortened: as §1

[7] = 25 mg/L, read-out: the protectant activity (%) against cucumber downy mildew
[8] = 50 mg/L, read-out: the protectant activity (%) against cucumber downy mildew
[9] = 100 mg/L, read-out: the protectant activity (%) against cucumber downy mildew
[10] = dose 100 mg/L, read-out: protectant activity against cucumber downy mildew in vivo
[11] = 400 mg/L, read-out: the protectant activity (%) against corn rust
[12] = dose 400 mg/L, read-out: protectant activity against corn rust in vivo
[13] = dose 25 mg/L, read-out: protectant activity against cucumber downy mildew in vivo

| SMILES | activity on relevant diseases such as plasmopora viticola [1] | inhibition at 0.03 µg/mL [2] [%] | inhibition at 0.1 µg/mL [2] [%] | inhibition at 0.3 µg/mL [2] [%] | pest or weed control at 12.5 µg/mL [3] [%] | pest or weed control at 25 µg/mL [3, 7] [%] | pest or weed control at 50 µg/mL [3, 8] [%] | pest or weed control at 100 µg/mL [3, 9] [%] | pest or weed control at 400 µg/mL [4] [%] | inhibition at 0.3 µg/mL [5] [%] | inhibition at 0.9 µg/mL [5] [%] | inhibition at 2.8 µg/mL [5] [%] | inhibition at 8.3 µg/mL [5] [%] | inhibition at 25 µg/mL [5] [%] | pest or weed control at 6.25 µg/mL [6] [%] | pest or weed control at 25 µg/mL [6] [%] | pest or weed control at 100 µg/mL [6] [%] | pest or weed control at 400 µg/mL [6, 11] [%] | pest or weed control at 400 µg/mL [6, 12] [%] | inhibition at 25 µg/mL [2] [%] | other results |
| --- | --- | --- | --- | --- | --- | --- | --- | --- | --- | --- | --- | --- | --- | --- | --- | --- | --- | --- | --- | --- | --- |
| N#Cc1c(Cl)c(Cl)c(Nc2ccccc2)c(Cl)c1C#N [KC14] | some activity | 0 | 0 | 0 | 0 | 0 | 0 | 0 | 30 | 0 | 0 | 0 | 0 | 0 | 0 | 0 | 0 | 0 | 0 |  | pest or weed control at 100 µg/mL [3, 10]: 0%; pest or weed control at 100 µg/mL ([4]; dose 100 mg/L): 0% |
| N#Cc1c(Cl)c(Cl)c(C#N)c(Nc2ccccc2)c1Cl [KC15] | some activity | 0 | 0 | 0 | 0 | 0 | 10 | 20 | 0 | 0 | 0 | 0 | 0 | 0 | 0 | 0 | 0 | 0 | 0 |  | pest or weed control at 25 µg/mL [3, 13]: 0%; pest or weed control at 50 µg/mL ([3]; dose 50 mg/L, read-out: protectant activity against cucumber downy mildew in vivo): 10%; pest or weed control at 100 µg/mL [3, 10]: 20% |
| N#Cc1c(F)c(Cl)c(Nc2ccc([N+](=O)[O-])cc2)c(C#N)c1F [KC22] |  | 0 | 0 | 0 | 0 | 0 | 0 | 0 | 0 | 0 | 0 | 0 | 0 | 0 |  | 0 | 0 | 0 | 0 | 0 | pest or weed control at 400 µg/mL [3]: 0% |
| N#Cc1c(Cl)c(Cl)c(C#N)c(Cl)c1Cl [STM-1] |  | 0 | 0 | 0 | 0 | 0 | 0 | 0 | 0 | 0 | 0 | 0 | 0 | 0 | 0 | 0 | 0 | 0 | 0 | 0 | pest or weed control at 400 µg/mL [3]: 0% |
| N#Cc1c(Cl)c(Cl)c(Cl)c(Cl)c1C#N [STM-2] |  |  |  | 50 |  |  |  |  | 0 | 0 | 0 | 0 | 0 | 0 |  |  |  | 70 |  | 50 | pest or weed control at 25 µg/mL [3, 13]: 10% |
